Data from US12091426B2, “Bifunctional degraders of hematopoietic progenitor kinase and therapeutic uses thereof” (Nurix Therapeutics, Inc., priority 2021, dated 2024).

Target: T1, HPK1 (Homo sapiens, UniProt Q92918)
T1 construct: A HiBiT tag was introduced by CRISPR on the N terminus of HPK1 in Jurkat cells; host or cells: Jurkat cells (ATCC TIB-152), monoclonal line with CRISPR knock-in of HiBiT at the endogenous HPK1 locus
Experiment: HPK1 Cellular HiBit Degradation Assay
Assay type: cell-based
Settings: HiBiT HPK1 Jurkat cells, 24 hrs; for DC50: concentration at which 50% of HPK1 was remaining, read-out: DC50 Category; for Dmax: Jurkat, maximum degradation vs DMSO vehicle control, read-out: Dmax Category
How it was run: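 Degraders are dosed in an 11-point series (10 uM to 0.1 nM final) onto Jurkat cells carrying an N-terminal HiBiT tag on endogenous HPK1. After 24 hrs at 37° C, lysis-based HiBiT luminescence quantifies remaining HPK1 relative to vehicle, and curve fitting gives DC50 and Dmax.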

T1 sequence (Q92918 whole entry): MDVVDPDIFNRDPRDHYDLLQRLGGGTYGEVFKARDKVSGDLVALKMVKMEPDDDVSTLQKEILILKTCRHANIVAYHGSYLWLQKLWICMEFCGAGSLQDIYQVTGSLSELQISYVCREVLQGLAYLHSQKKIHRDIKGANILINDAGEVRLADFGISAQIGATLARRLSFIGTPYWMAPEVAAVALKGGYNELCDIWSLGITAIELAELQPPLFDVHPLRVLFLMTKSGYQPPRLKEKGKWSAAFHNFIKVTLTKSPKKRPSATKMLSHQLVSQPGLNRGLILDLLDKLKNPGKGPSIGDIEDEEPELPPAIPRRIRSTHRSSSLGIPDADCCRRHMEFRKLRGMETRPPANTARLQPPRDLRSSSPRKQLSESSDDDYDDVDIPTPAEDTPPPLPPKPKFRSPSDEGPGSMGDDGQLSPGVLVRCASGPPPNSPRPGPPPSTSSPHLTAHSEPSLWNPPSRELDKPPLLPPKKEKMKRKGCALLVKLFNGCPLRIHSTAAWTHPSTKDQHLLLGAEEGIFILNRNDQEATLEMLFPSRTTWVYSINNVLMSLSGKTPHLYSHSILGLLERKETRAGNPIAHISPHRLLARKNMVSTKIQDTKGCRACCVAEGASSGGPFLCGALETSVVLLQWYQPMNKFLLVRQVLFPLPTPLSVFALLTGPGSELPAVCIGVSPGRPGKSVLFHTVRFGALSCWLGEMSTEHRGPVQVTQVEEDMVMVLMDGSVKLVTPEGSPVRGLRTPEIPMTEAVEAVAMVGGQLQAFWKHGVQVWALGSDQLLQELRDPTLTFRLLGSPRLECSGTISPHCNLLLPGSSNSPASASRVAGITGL

SMILES	DC50 [nM]	Dmax [%]
CC(C)n1cnc2cc(-c3ccc4c(c3)N([C@H]3C[C@@H](N5CCC[C@H](F)C5)C3)C(=O)C43CCN(C(=O)C4(C)CCN(C(=O)C5CCN(c6ccc(C7CCC(=O)NC7=O)cc6)CC5)CC4)CC3)nc(NC3CC3)c21 (mixture of isomers) [Example 198, (3RS)-3-(4-{4-[4-({6-[4-(cyclopropylamino)-3-(propan-2-yl)-3H-imidazo[4,5-c]pyridin-6-yl]-2-oxo-1-[(1S,3S)-3-[(3S)-3-fluoropiperidin-1-yl]cyclobutyl]-1,2-dihydrospiro[indole-3,4′-piperidin]-1′-yl}carbonyl)-4-methylpiperidine-1-carbonyl]piperidin-1-yl}phenyl)piperidine-2,6-dione]	100 to 500	70 to 85
CC(C)n1cnc2cc(-c3ccc4c(c3)N([C@H]3C[C@@H](N5CCC[C@@H](F)C5)C3)C(=O)C43CCN(C(=O)C4(C)CCN(C(=O)C5CCN(c6ccc(C7CCC(=O)NC7=O)cc6)CC5)CC4)CC3)nc(NC3CC3)c21 (mixture of isomers) [Example 199, (3RS)-3-(4-{4-[4-({6-[4-(cyclopropylamino)-3-(propan-2-yl)-3H-imidazo[4,5-c]pyridin-6-yl]-2-oxo-1-[(1S,3S)-3-[(3R)-3-fluoropiperidin-1-yl]cyclobutyl]-1,2-dihydrospiro[indole-3,4′-piperidin]-1′-yl}carbonyl)-4-methylpiperidine-1-carbonyl]piperidin-1-yl}phenyl)piperidine-2,6-dione]	100 to 500	50 to 70
CC(C)n1cnc2cc(-c3ccc4c(c3)N([C@H]3C[C@@H](N5C6CCC5COC6)C3)C(=O)C43CCN(C(=O)C4(C)CCN(C(=O)CC5CCN(c6ccc(C7CCC(=O)NC7=O)cc6)CC5)CC4)CC3)nc(NC3CC3)c21 (mixture of isomers) [Example 202, (3RS)-3-[4-(4-{2-[4-({6-[4-(cyclopropylamino)-3-(propan-2-yl)-3H-imidazo[4,5-c]pyridin-6-yl]-2-oxo-1-[(1S,3S)-3-{3-oxa-8-azabicyclo[3.2.1]octan-8-yl}cyclobutyl]-1,2-dihydrospiro[indole-3,4′-piperidin]-1′-yl}carbonyl)-4-methylpiperidin-1-yl]-2-oxoethyl}piperidin-1-yl)phenyl]piperidine-2,6-dione]	500 to 1000	50 to 70
CC(C)n1cnc2cc(-c3ccc4c(c3)N([C@H]3C[C@@H](N5CCC[C@H](F)C5)C3)C(=O)C43CCN(C(=O)C4(C)CCN(C(=O)C5CCN(c6ccc(C7CCC(=O)NC7=O)cn6)CC5)CC4)CC3)nc(NC3CC3)c21 (mixture of isomers) [Example 203, (3RS)-3-(6-{4-[4-({6-[4-(cyclopropylamino)-3-(propan-2-yl)-3H-imidazo[4,5-c]pyridin-6-yl]-2-oxo-1-[(1S,3S)-3-[(3S)-3-fluoropiperidin-1-yl]cyclobutyl]-1,2-dihydrospiro[indole-3,4′-piperidin]-1′-yl}carbonyl)-4-methylpiperidine-1-carbonyl]piperidin-1-yl}pyridin-3-yl)piperidine-2,6-dione]	< 100	70 to 85
CC(C)n1cnc2cc(-c3ccc4c(c3)N([C@H]3C[C@@H](N5CC6CCC(C5)O6)C3)C(=O)C43CCN(C(=O)C4(C)CCN(C(=O)C5CCN(c6ccc(C7CCC(=O)NC7=O)cn6)CC5)CC4)CC3)nc(NC3CC3)c21 (mixture of isomers) [Example 204, (3RS)-3-(6-{4-[4-({6-[4-(cyclopropylamino)-3-(propan-2-yl)-3H-imidazo[4,5-c]pyridin-6-yl]-2-oxo-1-[(1S,3S)-3-{8-oxa-3-Azabicyclo[3.2.1]octan-3-yl}cyclobutyl]-1,2-dihydrospiro[indole-3,4′-piperidin]-1′-yl}carbonyl)-4-methylpiperidine-1-carbonyl]piperidin-1-yl}pyridin-3-yl)piperidine-2,6-dione]	100 to 500	70 to 85
CC(C)n1cnc2cc(-c3ccc4c(c3)N([C@H]3C[C@@H](N5CCC[C@@H](F)C5)C3)C(=O)C43CCN(C(=O)C4(C)CCN(C(=O)CC5CCN(c6ccc(C7CCC(=O)NC7=O)cn6)CC5)CC4)CC3)nc(NC3CC3)c21 (mixture of isomers) [Example 205, (3RS)-3-[6-(4-{2-[4-({6-[4-(cyclopropylamino)-3-(propan-2-yl)-3H-imidazo[4,5-c]pyridin-6-yl]-2-oxo-1-[(1S,3S)-3-[(3R)-3-fluoropiperidin-1-yl]cyclobutyl]-1,2-dihydrospiro[indole-3,4′-piperidin]-1′-yl}carbonyl)-4-methylpiperidin-1-yl]-2-oxoethyl}piperidin-1-yl)pyridin-3-yl]piperidine-2,6-dione]	100 to 500	50 to 70
CC(C)n1cnc2cc(-c3ccc4c(c3)N([C@H]3C[C@@H](N5CCC[C@H](F)C5)C3)C(=O)C43CCN(C(=O)C4(C)CCN(C(=O)CC5CCN(c6ccc(C7CCC(=O)NC7=O)cn6)CC5)CC4)CC3)nc(NC3CC3)c21 (mixture of isomers) [Example 206, (3RS)-3-[6-(4-{2-[4-({6-[4-(cyclopropylamino)-3-(propan-2-yl)-3H-imidazo[4,5-c]pyridin-6-yl]-2-oxo-1-[(1S,3S)-3-[(3S)-3-fluoropiperidin-1-yl]cyclobutyl]-1,2-dihydrospiro[indole-3,4′-piperidin]-1′-yl}carbonyl)-4-methylpiperidin-1-yl]-2-oxoethyl}piperidin-1-yl)pyridin-3-yl]piperidine-2,6-dione]	100 to 500	50 to 70
CC(C)n1cnc2cc(-c3ccc4c(c3)N([C@H]3C[C@@H](N5CC6CCC(C5)O6)C3)C(=O)C43CCN(C(=O)C4(C)CCN(C(=O)CC5CCN(c6ccc(C7CCC(=O)NC7=O)cn6)CC5)CC4)CC3)nc(NC3CC3)c21 (mixture of isomers) [Example 207, (3RS)-3-[6-(4-{2-[4-({6-[4-(cyclopropylamino)-3-(propan-2-yl)-3H-imidazo[4,5-c]pyridin-6-yl]-2-oxo-1-[(1S,3S)-3-{8-oxa-3-Azabicyclo[3.2.1]octan-3-yl}cyclobutyl]-1,2-dihydrospiro[indole-3,4′-piperidin]-1′-yl}carbonyl)-4-methylpiperidin-1-yl]-2-oxoethyl}piperidin-1-yl)pyridin-3-yl]piperidine-2,6-dione]	500 to 1000	50 to 70
CC(C)n1cnc2cc(-c3ccc4c(c3)N([C@H]3C[C@@H](N5CCC(F)CC5)C3)C(=O)C43CCN(C(=O)C4(C)CCN(C(=O)C5CCN(c6ccc(C7CCC(=O)NC7=O)cn6)CC5)CC4)CC3)nc(NC3CC3)c21 (mixture of isomers) [Example 208, (3RS)-3-(6-{4-[4-({6-[4-(cyclopropylamino)-3-(propan-2-yl)-3H-imidazo[4,5-c]pyridin-6-yl]-2-oxo-1-[(1S,3S)-3-(4-fluoropiperidin-1-yl)cyclobutyl]-1,2-dihydrospiro[indole-3,4′-piperidin]-1′-yl}carbonyl)-4-methylpiperidine-1-carbonyl]piperidin-1-yl}pyridin-3-yl)piperidine-2,6-dione]	100 to 500	50 to 70
CC(C)n1cnc2cc(-c3ccc4c(c3)N([C@H]3C[C@@H](N5CCCCC5)C3)C(=O)C43CCN(C(=O)C4(C)CCN(C(=O)C5CCN(c6ccc(C7CCC(=O)NC7=O)nn6)CC5)CC4)CC3)nc(NC3CC3)c21 (mixture of isomers) [Example 209, (3RS)-3-(6-{4-[4-({6-[4-(cyclopropylamino)-3-(propan-2-yl)-3H-imidazo[4,5-c]pyridin-6-yl]-2-oxo-1-[(1S,3S)-3-(piperidin-1-yl)cyclobutyl]-1,2-dihydrospiro[indole-3,4′-piperidin]-1′-yl}carbonyl)-4-methylpiperidine-1-carbonyl]piperidin-1-yl}pyridazin-3-yl)piperidine-2,6-dione]	< 100	70 to 85
CC(C)n1cnc2cc(-c3ccc4c(c3)N([C@H]3C[C@@H](N5CCCCC5)C3)C(=O)C43CCN(C(=O)C4(C)CCN(C(=O)C5CCN(c6ccc(C7CCC(=O)NC7=O)c(F)c6)CC5)CC4)CC3)nc(NC3CC3)c21 (mixture of isomers) [Example 210, (3RS)-3-(4-{4-[4-({6-[4-(cyclopropylamino)-3-(propan-2-yl)-3H-imidazo[4,5-c]pyridin-6-yl]-2-oxo-1-[(1S,3S)-3-(piperidin-1-yl)cyclobutyl]-1,2-dihydrospiro[indole-3,4′-piperidin]-1′-yl}carbonyl)-4-methylpiperidine-1-carbonyl]piperidin-1-yl}-2-Fluorophenyl)piperidine-2,6-dione]	< 100	70 to 85
CC(C)n1cnc2cc(-c3ccc4c(c3)N([C@H]3C[C@@H](N5CCCCC5)C3)C(=O)C43CCN(C(=O)C4(C)CCN(C(=O)C5CCN(c6ccc(C7CCC(=O)NC7=O)cn6)CC5)CC4)CC3)nc(NC3CCOCC3)c21 (mixture of isomers) [Example 214, (3RS)-3-[6-(4-{4-methyl-4-[(6-{4-[(oxan-4-yl)amino]-3-(propan-2-yl)-3H-imidazo[4,5-c]pyridin-6-yl}-2-oxo-1-[(1S,3S)-3-(piperidin-1-yl)cyclobutyl]-1,2-dihydrospiro[indole-3,4′-piperidin]-1′-yl)carbonyl]piperidine-1-carbonyl}piperidin-1-yl)pyridin-3-yl]piperidine-2,6-dione]	< 100	70 to 85
CC(C)n1cnc2cc(-c3ccc4c(c3)N([C@H]3C[C@@H](N5C6CCC5COC6)C3)C(=O)C43CCN(C(=O)C4(C)CCN(C(=O)C5CCN(c6ccc(C7CCC(=O)NC7=O)cn6)CC5)CC4)CC3)nc(NC3CC3)c21 (mixture of isomers) [Example 215, (3RS)-3-(6-{4-[4-({6-[4-(cyclopropylamino)-3-(propan-2-yl)-3H-imidazo[4,5-c]pyridin-6-yl]-2-oxo-1-[(1S,3S)-3-{3-oxa-8-azabicyclo[3.2.1]octan-8-yl}cyclobutyl]-1,2-dihydrospiro[indole-3,4′-piperidin]-1′-yl}carbonyl)-4-methylpiperidine-1-carbonyl]piperidin-1-yl}pyridin-3-yl)piperidine-2,6-dione]	< 100	70 to 85
